Laboratory results published in US20090298903A1, “USE OF TETRAMIC ACID DERIVATIVES FOR INSECT CONTROL” (priority 2006, published 2009).

Key:
Assay type in all cases: in vivo
Scirtothrips dorsalis = assay: Example 10: tea plants against Scirtothrips dorsalis; conditions: 7 d after treatment, nymphs, Ethiprole (SC10) 0.005, (I-4) (100 OD) 0.01, Imidacloprid (50 WG) 0.005 % a.s.
Procedure: Plots approx. 5 m^2 in size which are planted with tea plants cv. “Yabukita” which are approximately 18 years old are treated, in three replications, against Scirtothrips dorsalis. Here, the active substance Example (I-4) (100 OD) is tested, at the specified application rates, against the commercial standards Ethiprole (SC10 flowable) and Imidacloprid (50 WG). The application is carried out with a sprayer which is operated with pressurized air. The water application rate is 4500 l/ha. The test is evaluated 7 days after the treatment by scoring the destruction rate of the nymphs and the plants.

Thrips palmi [1] = assay: Example 7: aubergines against Thrips palmi; conditions: for Efficacy (% Abbott) 7 d: 7 d after the second application, 20 leaves, Imidacloprid (100 SL) 0.0151 % a.s., (I-4) (+ 0.2% rapeseed oil methyl ester) 0.0096 % a.s.; for Efficacy (% Abbott) 13 d: 13 d after the second application; for Efficacy (% Abbott) 13 d / Efficacy (% Abbott) 21 d: Imidacloprid 0.0151 % a.s., (I-4) 0.0096 % a.s.; for Efficacy (% Abbott) 21 d: 21 d after the second application
Procedure: Plots approximately 16.5 m^2 in size which are planted with aubergines are treated, in three replications, against Thrips palmi. Here, the active substance Example (I-4) and the commercial standard Imidacloprid (100 SL) is applied at the specified application rates, using a knapsack sprayer which is operated with compressed air. The water application rate is 750 l/ha. In the case of Example (I-4), 0.2% a.s. rapeseed oil methyl ester (500 EW) is added to the spray mixture. Three applications are carried out at intervals of 7 and 14 days, respectively.
The destruction rate in percent is determined on in each case 20 leaves. The following results are obtained 7, 13 and 21 days after the second application: […]

Thrips palmi [2] = assay: Example 4: aubergines against Thrips palmi; conditions: nymphs on leaves, (I-4) (240 SC + 0.2% rapeseed oil methyl ester) 0.0096 % a.s.; for Efficacy (% Abbott) 7 d after treatm. 3 / Efficacy (% Abbott) 14 d after treatm. 3 / Efficacy (% Abbott) 21 d after treatm. 3: Imidacloprid 0.01 % a.s.; for Efficacy (% Abbott) 4 d after treatm. 2: Imidacloprid (100 SL) 0.01 % a.s., three applications
Procedure: Plots 10 m^2 in size which are planted with aubergines cv. “Dumaguete Long Purple” are treated, in three replications, against Thrips palmi. The application is effected with a knapsack sprayer which is operated with pressurized air. Here, the active substance Example (I-4) (240 SC), in a tank mix together with 0.2% a.s. rapeseed oil methyl ester […] and the commercial standard Imidacloprid (100 SL), is tested at the specified application rates. The water application rate is 400 l/ha. Three applications are carried out at intervals of 8 and 7 days, respectively.
The test is evaluated in each case 4 days after treatment 2 and 7, 14 and 21 days after treatment 3 by scoring the destruction of the nymphs on the leaves.

sawflies Hoplocampa sp. = assay: Example 31: apple trees against sawflies; conditions: 57 d after treatment, larvae on fruits, Thiacloprid (SC 480) 48 + deltamethrin 3.75 tank mix, (I-4) (150 OD) 48 g a.s./ha/m crown level
Procedure: Apple trees cv. “Holsteiner Cox” in plots approx. 20 m^2 in size are treated, in 4 replications, against sawflies Hoplocampa sp. Here, the active substance Example (I-4) (150 OD) at the specified application rate is tested against a tank mix of the commercial standards Thiacloprid (SC 480) and Deltamethrin-liquid in the specified application rates. The application is carried out with a knapsack sprayer. Here, the treatment is effected with a water application rate of 500 l/ha/m crown level.
The test is evaluated 57 days after the treatment by scoring the destruction of the larvae on the fruits with the aid of the Abbott method.

[3] = test system: flea beetles (Phyllotreta sp.); assay: Example 24: aubergines against flea beetles; conditions: 7 d after the last of four treatments, larvae, Imidacloprid (100 SL) 100, (I-4) (100 OD) 70, Profenofos (500 EC) 500 g a.s./ha
Procedure: Plots approx. 12 m^2 in size which are planted with aubergines cv. “DLP” are treated, in three replications, against flea beetles (Phyllotreta sp.). The application is carried out with a knapsack sprayer which is operated with pressurized air. Here, the active substance Example (I-4) (100 OD) and the commercial standards Imidacloprid (100 SL) and Profenofos (500 EC) are applied at the specified application rates. Four applications are carried out at intervals of 7, 8 and 10 days, with a water application rate of 750 l/ha.
The test is evaluated 7 days after the last treatment by scoring the destruction rate of the larvae on the plants.

Carpocapsa pomonella = assay: Example 30: apple trees against Carpocapsa pomonella, fruit damage; conditions: 14 days after treatment 2, Imidacloprid (200 SC) 0.015 %, (I-4) (150 OD) 0.015 %
Procedure: Approx. 16-year-old apple trees cv. “Golden Delicious” are treated, in four replications, against Carpocapsa pomonella. The application is carried out with a spray diffuser. Here, the active substance Example (I-4) (150 OD) is applied in comparison with Imidacloprid (200 SC) at the specified application rates. Two applications are carried out at an interval of 16 days, with a water application rate of 1000 l/ha.
The test is evaluated 14 days after treatment 2 by scoring the fruit damage with the aid of the Abbott formula.

Empoasca biguttula = assay: Example 12: cotton against Empoasca biguttula; conditions: for Efficacy (% H + T) 3 d: 3 d after second treatment, Henderson and Tilton, Imidacloprid (SL 100) 30, (I-4) (240 SC + 0.2% rapeseed oil methyl ester) 24, Buprofezin (WP50) 50 g a.s./ha; for Efficacy (% H + T) 7 d: 7 d after second treatment; for Efficacy (% H + T) 7 d / Efficacy (% H + T) 14 d / Efficacy (% H + T) 21 d: Imidacloprid 30, (I-4) 24, Buprofezin 50 g a.s./ha; for Efficacy (% H + T) 14 d: 14 d after second treatment; for Efficacy (% H + T) 21 d: 21 d after second treatment
Procedure: Plots 10 m^2 in size which are planted with cotton are treated, in three replications, against Empoasca biguttula. The application is carried out with a knapsack sprayer operated with pressurized air. Here, the active substance Example (I-4) (240 SC), in a tank mix with 0.2% a.s. rapeseed oil methyl ester (500 EW), is tested against the commercial standards Imidacloprid (SL 100) and Buprofezin (WP50) at the specified application rates. Two applications are carried out at an interval of 7 days. The water application rate is 750 l/ha.
The test is evaluated 3, 7, 14 and 21 days after the second treatment by counting the live animals. Thereafter, the efficacy is calculated in percent, using the formula of Henderson and Tilton.

CCOC(=O)OC1=C(c2cc(C)ccc2C)C(=O)N[C@]12CC[C@@H](OC)CC2 [Example (I-4)]
Efficacy (% Abbott) 7 d (Scirtothrips dorsalis): 100 % Abbott | Efficacy (% Abbott) 7 d (Thrips palmi [1]): 84 % Abbott | Efficacy (% Abbott) 13 d (Thrips palmi [1]): 88 % Abbott | Efficacy (% Abbott) 21 d (Thrips palmi [1]): 78 % Abbott | Efficacy (% Abbott) 7 d after treatm. 3 (Thrips palmi [2]): 75.0 % Abbott | Efficacy (% Abbott) 14 d after treatm. 3 (Thrips palmi [2]): 82.8 % Abbott | Efficacy (% Abbott) 21 d after treatm. 3 (Thrips palmi [2]): 90.6 % Abbott | Efficacy (% Abbott) 4 d after treatm. 2 (Thrips palmi [2]): 82.9 % Abbott | Efficacy (%) Abbott 57 d (sawflies Hoplocampa sp.): 98% | Efficacy (% Abbott) 7 d [3]: 89 % Abbott | Efficacy (% Abbott) (Carpocapsa pomonella): 73.7 % Abbott | Efficacy (% H + T) 3 d (Empoasca biguttula): 92.1 % H + T | Efficacy (% H + T) 7 d (Empoasca biguttula): 92.9 % H + T | Efficacy (% H + T) 14 d (Empoasca biguttula): 84.4 % H + T | Efficacy (% H + T) 21 d (Empoasca biguttula): 72.6 % H + T

O=[N+]([O-])NC1=NCCN1Cc1ccc(Cl)nc1 [Imidacloprid]
Efficacy (% Abbott) 7 d (Scirtothrips dorsalis): 44.4 % Abbott | Efficacy (% Abbott) 7 d (Thrips palmi [1]): 72 % Abbott | Efficacy (% Abbott) 13 d (Thrips palmi [1]): 68 % Abbott | Efficacy (% Abbott) 21 d (Thrips palmi [1]): 24 % Abbott | Efficacy (% Abbott) 7 d after treatm. 3 (Thrips palmi [2]): 75.0 % Abbott | Efficacy (% Abbott) 14 d after treatm. 3 (Thrips palmi [2]): 62.1 % Abbott | Efficacy (% Abbott) 21 d after treatm. 3 (Thrips palmi [2]): 53.1 % Abbott | Efficacy (% Abbott) 4 d after treatm. 2 (Thrips palmi [2]): 82.9. % Abbott | Efficacy (% Abbott) 7 d [3]: 98 % Abbott | Efficacy (% Abbott) (Carpocapsa pomonella): 26.3 % Abbott | Efficacy (% H + T) 3 d (Empoasca biguttula): 97.3 % H + T | Efficacy (% H + T) 7 d (Empoasca biguttula): 99.6 % H + T | Efficacy (% H + T) 14 d (Empoasca biguttula): 95.6 % H + T | Efficacy (% H + T) 21 d (Empoasca biguttula): 72.5 % H + T
